Measurements: patent publication US20240337647A1, “IMPROVED METHODS FOR IDENTIFICATION OF FUNCTIONAL CELL STATES” (priority 2021, published 2024)
Like-named read-outs stand apart in the source and are kept apart here.

Experiments:
[1] = tested on: biomolecular targets known to be associated with common negative side effects of pharmaceuticals in humans; experiment: In vitro secondary pharmacology panels, all targets of the two panels (31 dose-response + 78 single concentration); assay type: biochemical; details: percentage of targets hit among all targets tested in the two secondary pharmacology panels
Procedure: The purpose of this study was to assess the toxicity risk estimation provided by the Cell Health Screen relative to information from panels of in vitro pharmacology assays that were also designed to detect toxicity risk during pharmaceutical development. This study was performed with outside collaborators who have expertise in the use of the in vitro pharmacology assays. These in vitro assay panels detect whether chemical compounds directly interact with biomolecular targets known to be associated with toxic side effects in humans (mostly enzymes, cell surface receptors, and other proteins that participate in signaling pathways) (Pottel et al., 2020). […] As such, the interpretation process is somewhat subjective. In contrast, the Cell Health Screen uses a feature extraction and ML classifier strategy described above, to reduce all cellular phenotypic changes caused by a chemical compound to a single probability value, from 0 to 1. This is a quantitative toxicity risk estimation relative to a training set of compounds used to train the ML classifier. Therefore, comparing results from the Cell Health Screen to the in vitro pharmacology panels is a matter of comparing the trend in ML classifier probability values, across all 40 excipients, with their relative degrees of promiscuity and target interaction potency observed in the in vitro pharmacology panels.
(§1) For a detailed description of our collaborators' in vitro pharmacology assay panels, please see the publication by Pottel et al. (Pottel et al., 2020). Briefly, each in vitro assay focuses on one biomolecular target known to be associated with common negative side effects of pharmaceuticals in humans. These targets are generally enzymes, cell surface receptors, or other proteins that mediate cell signal transduction. In one assay panel, chemical compound interaction is assessed for 31 biomolecular targets in a dose-response fashion, which assesses compound-target interaction strength expressed as an IC50 and an activity range (unless no interaction happens).
Here we present two summarized versions of the study results. […] For the biological endpoints, the abbreviation key is as follows: CM=cell morphology, CMI=cell membrane integrity, ROS=reactive oxygen species, GTH=glutathione, NMI1=nuclear membrane integrity 1, CC=cell cycle, NMI2=nuclear membrane integrity 2, MMP=mitochondrial membrane potential. […] This is the percentage of all biomolecular targets for which an effect was observed, for each excipient. The THR value serves as an expression of an excipient's promiscuity with regard to binding biomolecular targets known to associate with toxic side effects in humans.

31 biomolecular targets = experiment: In vitro pharmacology panel of 31 biomolecular targets, dose-response; assay type: biochemical; details: for IC50: read-out: Avg potency
Procedure: as §1
These last two features are derived from the first panel of 31 biomolecular targets, which are assayed using a concentration series of each excipient to produce a dose-response curve.

HL60 cells = experiment: AsedaSciences SYSTEMETRIC Cell Health Screen (multiparametric acute cell stress assay, flow cytometry, ML classifier); details: probability (0 to 1) of assignment to the 'yes' high cell stress class; HL60, 4 hours, 5 nM-100 μM
Source text: The Cell Health Screen is a multiparametric acute cell stress assay, using a panel of fluorescent physiological reporting dyes, on an automated flow cytometry platform. Rather than simply producing dose-response curves for all individual biological readouts, features are generated by computing custom-defined distance functions between test and control wells. All test compounds are represented as feature vectors, after which the analysis algorithm employs a logistic regression model to classify test compounds relative to a training set. This machine learning (ML) approach integrates all measured readouts into a single predictive statistical model. […] This training set empirically covers the full range of possible phenotypes in the Cell Health Screen, from no-response to acute stress, with sufficient representation across the spectrum. Training set compounds were assigned to binary classes (“yes”=expectation of high cell stress or “positive” phenotype; “no”=no expectation of positive phenotype). This externally established ground-truth was based upon manually curated information from research literature and, where applicable, clinical trial results and commercial/regulatory histories.
For an unknown test compound, the ML classifier uses all the FC parameter features describing compound response, simultaneously, to predict the final assignment. This is achieved by calculating the probability of assigning that compound's screen phenotype to the “yes” class defined by the training set. By specifying the problem as a classification challenge, the data analysis pipeline assures that any apparent lack of coordinated change among biological readouts presents no interpretation challenge. All phenotypic data are treated simply as input features to a statistical model. In contrast, many conventional flow cytometry assays require strict mechanistic interpretation of every measured biological readout. often resulting in conflicting conclusions (e.g. if reactive oxygen species increase, but glutathione is unaffected, which should be “believed”?). The final probability score, or Cell Health Index, is a quantitative assessment of a multiparametric phenotype's similarity to a diverse set of known good and bad actors. Finally, choosing HL60 as our reporter cell line means that the screen is explicitly designed not to detect instances in which a parent compound only causes cellular toxicity via metabolites.
In a 384-well platform. HL60 cells are exposed to a 10-step, 3× dilution series of each test compound (5 nM-100 μM) for 4 hours at 37° C. with 5% CO2. Each dilution series is screened in duplicate, occupying a total of 20 wells, allowing 16 test compounds to be assayed on each plate. Each row contains one positive and one negative control well, for a total of 16 matched control pairs on each assay plate. Compound formatting, cell deposition, and dye application are performed robotically, so that final assay conditions comprise 100,000 cells in a 40 μl volume. After compound exposure, live cells are rapidly stained with a panel of fluorescent dyes that report physiological signatures of both mitochondrial dysfunction and gross cell stress. Fluorescence data are collected using automated flow cytometry with no gating. […] Well-specific flow cytometry data files, with an accompanying map of well contents, are moved to cloud infrastructure where the automated algorithm for quality control and ML classification is triggered. […]

[2] = average concentration of the IC50 values from dose-response results, panel of 31 targets
[3] = first panel of 31 biomolecular targets, concentration series

Compound | Overall target hit rate [1] | IC50 (31 biomolecular targets; [2]) | Activity range (31 biomolecular targets; [3]) | CHI score (Cell Health Index) (HL60 cells) | IC50 (31 biomolecular targets) | Activity range (31 biomolecular targets)
CCCOC(=O)c1ccc(O)cc1 [Propylparaben] | 3% | 19.3 µM | 11 to 24 µM |  |  | 
O=C([O-])c1c(Cl)c(Cl)c(Cl)c(Cl)c1-c1c2cc(Br)c(=O)c(Br)c-2oc2c(Br)c([O-])c(Br)cc12.[Na+].[Na+] [D&C Red #28, Phloxine B] | 55% |  | 0.13 to 28 µM | 0.637 | 10 µM | 
CCCOC(=O)c1cc(O)c(O)c(O)c1 [Propyl gallate] | 3% | 7.2 µM | 0.015 to 7.2 µM |  |  | 
Cc1cc(O)cc(C)c1Cl [Chloroxylenol, 4-chloro-3,5-dimethylphenol] | 6% | 12 µM | 10 to 14 µM | 0.349 |  | 
CN(C)c1ccc2nc3ccc(=[N+](C)C)cc-3sc2c1 [Methylene blue hydrate] | 48% | 6.5 µM | 0.04 to 24 µM |  |  | 
Polysorbate 80 | 13% |  | 1.0 to 21 µM | 0.422 | 10.7 µM | 
CC(C)(C)CC(C)(C)c1ccc(OCCOCC[N+](C)(C)Cc2ccccc2)cc1 [Benzethonium chloride] | 51% |  |  |  |  | 
CC(=O)[O-].[Hg+][c]1ccccc1 [Phenylmercuric acetate] | 58% |  |  | 0.955 | 5 µM | 0.02 to 22 µM
C[CH2][Hg][S]c1ccccc1C(=O)[O-].[Na+] [Thimerosal] | 17% |  |  | 0.936 | 15 µM | 0.32 to 30 µM
O=C1OC2(c3ccccc31)c1cc(I)c(O)c(I)c1Oc1c2cc(I)c(O)c1I [FD&C Red #3, Erythrosine extra bluish] | 48% | 5.7 µM | 0.09 to 25 µM |  |  | 
